We go through two molecules from EPA's ToxValDB 9.5 (doi:10.2903/j.efsa.2014.3742).

Values after ≈ are worked out from the molar mass of the structure shown.

For data set [1], the system named is Tagia sp. Conditions: for LC50: acute.
In data set [2] the test system is Anas platyrhynchos.
Data set [3] concerns Rattus norvegicus.
Data set [4] deals with Daphnia magna. Conditions: chronic/long-term; duration: 21 days.
Data set [5] deals with Oncorhynchus mykiss. Particulars: for LC50: acute, duration: 96 hours, mortality; for NOEC: chronic/long-term.
Data set [6] deals with Apis mellifera. Conditions: acute, mortality.
The subject of data set [7] is Colinus virginianus. Particulars: acute; oral; mortality.
Data set [8] relates to Oryctolagus sp. Particulars: reproduction developmental; morphology.
The test system of data set [9] is Folsomia candida. Particulars: chronic/long-term.

As for `Nc1ncn[nH]1` [Amitrole], the LC50 in data set [1] (duration: 14 days, mortality) was greater than 448 mg/kg; in data set [2] (short-term, duration: 5 days, oral, feed, mortality), greater than 829 mg/kg; in data set [3] (acute, mortality) it was 5000 mg/kg; in data set [5], greater than 1000 µg/mL. Besides, the NOEC in [2] (reproductive, duration: 15 months, morphology) worked out at 16 mg/kg-day; in data set [4], 0.32 mg/L; in data set [5] (duration: 21 days) it was 100 mg/L. Moreover, the NOAEL came out at 0.9 mg/kg-day in data set [3] (reproduction developmental); 0.12 mg/kg-day in [3] (reproduction developmental, morphology); 0.1 mg/kg-day in [3] (subchronic, duration: 90 days, oral, histopathology: neoplastic); 3 mg/kg-day in data set [8]. For the same molecule, the LD50 was greater than 100 µg/piece in data set [6] (dermal); greater than 152 µg/piece in data set [6] (oral, unspecified); greater than 2150 mg/kg in data set [7].
On to `c1nc[nH]n1` [1H-1,2,4-Triazole], for which the LC50 in data set [1] is greater than 1000 mg/kg; in data set [5], 498 µg/mL (≈ 7.21 mM). In addition, the NOEC in data set [1] (chronic/long-term) was no more than 1 mg/kg; in [5] (duration: 28 days, other) it was 3.2 mg/L; in data set [9], 1.8 mg/kg.

As usually defined, the NOAEL is the highest tested level that showed no adverse finding.
